# Laboratory results: US7098348B2, “Triptolide derivatives as immunomodulators and anticancer agents” (priority 2002, dated 2006)
# What was measured:
# [1] = test system: Jurkat human T lymphocyte cell line; test: Annexin V apoptosis assay; type: cell-based; settings: 24 hours, compound pre-incubated in human serum 48 hours, FIG. 1
# Experimental: (§1) Pooled human serum was stored in aliquots at −80° C. Test compounds were added at 20 mM to thawed human serum in 1.5 ml microfuge tubes and incubated at 37° C. in a water bath for 48 hours. The test samples were placed on ice until dilution for the bioassay. Controls consisted of the compounds incubated in complete tissue culture medium (RPMI 1640 medium plus 5% heat-inactivated fetal calf serum, 1% HEPES, 1% pen/strep, 1% glutamine) rather than human serum.
# Test samples (incubated in human serum as described in section A) were diluted to 1 mM in complete tissue culture medium. Aliquots were placed in microculture plates and serial dilutions were prepared so that the final concentration would encompass the range of 2 to 6,000 nM with half-log increments. […]
# After 24 hours, the plates were centrifuged to pellet the cells, and the cells were washed twice with 2% heat-inactivated fetal calf serum in PBS. […] The contents of the wells were individually transferred into test tubes, and apoptosis was analyzed using a FACSCalibur flow cytometer (BD Immunocytometry Systems, San Jose, Calif.). Cells positive for Annexin V binding were considered to be apoptotic, and the data were calculated as percent apoptotic cells. […]
# [2] = test system: IL-2 production by Jurkat cells; test: IL-2 production assay; type: cell-based; settings: Jurkat cells stimulated with anti-CD3 antibody and PMA, 24 hours; compound pre-incubated in human serum; FIG. 2
# Experimental: as §1
# Test samples, incubated in human serum as described in Example 2A, were diluted to 1 mM in complete tissue culture medium. Aliquots were placed in microculture plates that had been coated with anti-CD3 antibody (used to stimulate the production of IL-2 by Jurkat cells), and serial dilutions were prepared so that the final concentration would encompass the range of 0.001 to 10,000 nM in log increments. […] The stored supernatants were analyzed for human IL-2 concentration using the Luminex 100 (Luminex Corporation, Austin, Tex.), Luminex microspheres coupled with anti-IL-2 capture antibody, and fluorochrome-coupled anti-IL-2 detection antibody. The data were expressed as ng/ml of IL-2. […]
# [3] = test system: HT-29 human colon cancer cell line; settings: HT-29 tumor xenografts, U.S. Pat. No. 6,620,843, cited from earlier work
SMILES,"induction of apoptosis (percent apoptotic cells, Annexin V) [1]",inhibition of IL-2 production [2],tumor regression [3],tumor growth inhibition ([3]; in comparison to 5-FU and CPT-11)
"CC(C)[C@]12O[C@H]1[C@@H]1O[C@]13[C@]1(O[C@H]1C[C@H]1C4=C(CC[C@@]13C)C(=O)OC4)[C@]2(C)O [PG670, 14-C-methyltriptolide]",dose-dependent induction of apoptosis,inhibition of IL-2 production,–,–
CC(C)[C@]12O[C@H]1[C@@H]1O[C@]13[C@]1(O[C@H]1C[C@H]1C4=C(CC[C@@]13C)C(=O)OC4)[C@@H]2OC(=O)CCC(=O)O [triptolide 14-succinate],–,–,induced tumor regression,strongly inhibited tumor growth
